The source made the active and inactive calls. The calls are words filed in the database; no cut-off is given here.
Tests used:
Nucleic Acid [1] = assay: Induction of photochemical DNA cleavage in Escherichia coli pBR322 assessed as form 2 level at 15 uM in pH 8.0 phosphate buffer measured after 10 mins of UV irradiation; assay type: nucleic-acid assay
Nucleic Acid [2] = assay: Induction of photochemical DNA cleavage in Escherichia coli pBR322 assessed as form 2 level at 15 uM in pH 6.0 phosphate buffer measured after 1 min of UV irradiation; assay type: nucleic-acid assay
Nucleic Acid [3] = assay: Induction of photochemical DNA cleavage in Escherichia coli pBR322 assessed as form I level at 15 uM in pH 8.0 phosphate buffer measured after 6 mins of UV irradiation; assay type: nucleic-acid assay
Nucleic Acid [4] = assay: Induction of photochemical DNA cleavage in Escherichia coli pBR322 assessed as form I level at 15 uM in pH 7.0 phosphate buffer measured after 1 min of UV irradiation; assay type: nucleic-acid assay
Nucleic Acid [5] = assay: Induction of photochemical DNA cleavage in Escherichia coli pBR322 assessed as form 2 level at 15 uM in pH 6.0 phosphate buffer measured after 0.5 mins of UV irradiation; assay type: nucleic-acid assay
Nucleic Acid [6] = assay: Induction of photochemical DNA cleavage in Escherichia coli pBR322 assessed as form 2 level at 15 uM in pH 6.0 phosphate buffer measured after 4 mins of UV irradiation; assay type: nucleic-acid assay
Nucleic Acid [7] = assay: Induction of photochemical DNA cleavage in Escherichia coli pBR322 assessed as form I level at 15 uM in pH 8.0 phosphate buffer measured after 4 mins of UV irradiation; assay type: nucleic-acid assay
Nucleic Acid [8] = assay: Induction of photochemical DNA cleavage in Escherichia coli pBR322 assessed as form I level at 15 uM in pH 7.0 phosphate buffer measured after 4 mins of UV irradiation; assay type: nucleic-acid assay
Nucleic Acid [9] = assay: Induction of photochemical DNA cleavage in Escherichia coli pBR322 assessed as form 3 level at 15 uM in pH 8.0 phosphate buffer measured after 8 mins of UV irradiation; assay type: nucleic-acid assay
Nucleic Acid [10] = assay: Induction of photochemical DNA cleavage in Escherichia coli pBR322 assessed as form I level at 15 uM in pH 6.0 phosphate buffer measured after 0.5 mins of UV irradiation; assay type: nucleic-acid assay
A-375 [11] = assay: Drug uptake in human A375 cells at 30 uM incubated for 30 mins by differential interference contrast microscopy; assay type: ADME, cell-based; conditions: a-375, 0.5 h
Nucleic Acid [12] = assay: Induction of photochemical DNA cleavage in Escherichia coli pBR322 assessed as form 2 level at 15 uM in pH 8.0 phosphate buffer measured after 8 mins of UV irradiation; assay type: nucleic-acid assay
Nucleic Acid [13] = assay: Induction of photochemical DNA cleavage in Escherichia coli pBR322 assessed as form 3 level at 15 uM in pH 6.0 phosphate buffer measured after 4 mins of UV irradiation; assay type: nucleic-acid assay
Nucleic Acid [14] = assay: Induction of photochemical DNA cleavage in Escherichia coli pBR322 assessed as form 2 level at 15 uM in pH 7.0 phosphate buffer measured after 1 min of UV irradiation; assay type: nucleic-acid assay
Nucleic Acid [15] = assay: Induction of photochemical DNA cleavage in Escherichia coli pBR322 assessed as form 3 level at 15 uM in pH 8.0 phosphate buffer measured after 1 min of UV irradiation; assay type: nucleic-acid assay
Nucleic Acid [16] = assay: Induction of photochemical DNA cleavage in Escherichia coli pBR322 assessed as form I level at 15 uM in pH 6.0 phosphate buffer measured after 1 min of UV irradiation; assay type: nucleic-acid assay
Nucleic Acid [17] = assay: Induction of DNA damage in human […] cells at 30 uM incubated for 3 hrs using cells exposed to UV irradiation for 20 mins by single cell gel electrophoresis; assay type: cell-based
Nucleic Acid [18] = assay: Induction of photochemical DNA cleavage in Escherichia coli pBR322 assessed as form I level at 15 uM in pH 8.0 phosphate buffer measured after 8 mins of UV irradiation; assay type: nucleic-acid assay
Nucleic Acid [19] = assay: Induction of photochemical DNA cleavage in Escherichia coli pBR322 assessed as form 3 level at 15 uM in pH 6.0 phosphate buffer measured after 2 mins of UV irradiation; assay type: nucleic-acid assay
Nucleic Acid [20] = assay: Induction of photochemical DNA cleavage in Escherichia coli pBR322 assessed as form 3 level at 15 uM in pH 8.0 phosphate buffer measured after 2 mins of UV irradiation; assay type: nucleic-acid assay
Nucleic Acid [21] = assay: Induction of photochemical DNA cleavage in Escherichia coli pBR322 assessed as form 3 level at 15 uM in pH 7.0 phosphate buffer measured after 2 mins of UV irradiation; assay type: nucleic-acid assay
Nucleic Acid [22] = assay: Induction of DNA damage in human […] cells at 30 uM incubated for 3 hrs using cells exposed to UV irradiation for 4 to 24 hrs by single cell gel electrophoresis; assay type: cell-based; conditions: TDE = time-dependent effect
Nucleic Acid [23] = assay: Induction of photochemical DNA cleavage in Escherichia coli pBR322 assessed as form 2 level at 15 uM in pH 8.0 phosphate buffer measured after 1 min of UV irradiation; assay type: nucleic-acid assay
Nucleic Acid [24] = assay: Induction of photochemical DNA cleavage in Escherichia coli pBR322 assessed as form 3 level at 15 uM in pH 8.0 phosphate buffer measured after 6 mins of UV irradiation; assay type: nucleic-acid assay
A-375 [25] = assay: Toxicity in human A375 cells at <10 uM under dark condition incubated for 72 hrs by MTT assay; assay type: cell-based; conditions: a-375, 72 h
A-375 [26] = assay: Phototoxicity in human A375 cells incubated for 72 hrs exposed to UV light for 10 mins by MTT assay; assay type: functional; conditions: A-375, light or radiation study
Nucleic Acid [27] = assay: Induction of photochemical DNA cleavage in Escherichia coli pBR322 assessed as form 2 level at 15 uM in pH 6.0 phosphate buffer measured after 10 mins of UV irradiation; assay type: nucleic-acid assay
Nucleic Acid [28] = assay: Induction of photochemical DNA cleavage in Escherichia coli pBR322 assessed as form 3 level at 15 uM in pH 6.0 phosphate buffer measured after 10 mins of UV irradiation; assay type: nucleic-acid assay
Nucleic Acid [29] = assay: Induction of photochemical DNA cleavage in Escherichia coli pBR322 assessed as form 2 level at 15 uM in pH 6.0 phosphate buffer measured after 6 mins of UV irradiation; assay type: nucleic-acid assay
Nucleic Acid [30] = assay: Induction of photochemical DNA cleavage in Escherichia coli pBR322 assessed as form 2 level at 15 uM in pH 7.0 phosphate buffer measured after 0.5 mins of UV irradiation; assay type: nucleic-acid assay
Nucleic Acid [31] = assay: Induction of photochemical DNA cleavage in Escherichia coli pBR322 assessed as supercoiled DNA level at 15 uM in pH 6.0 phosphate buffer measured after 2 mins of UV irradiation; assay type: nucleic-acid assay
Nucleic Acid [32] = assay: Induction of photochemical DNA cleavage in Escherichia coli pBR322 assessed as form 2 level at 15 uM in pH 7.0 phosphate buffer measured after 6 mins of UV irradiation; assay type: nucleic-acid assay
Nucleic Acid [33] = assay: Induction of photochemical DNA cleavage in Escherichia coli pBR322 assessed as form 3 level at 15 uM in pH 7.0 phosphate buffer measured after 10 mins of UV irradiation; assay type: nucleic-acid assay
Nucleic Acid [34] = assay: Induction of photochemical DNA cleavage in Escherichia coli pBR322 assessed as form 3 level at 15 uM in pH 7.0 phosphate buffer measured after 6 mins of UV irradiation; assay type: nucleic-acid assay
Nucleic Acid [35] = assay: Induction of photochemical DNA cleavage in Escherichia coli pBR322 assessed as form 3 level at 15 uM in pH 7.0 phosphate buffer measured after 1 min of UV irradiation; assay type: nucleic-acid assay

Activity (Nucleic Acid [1]): 52.3%
Activity (Nucleic Acid [2]): 52.7%
Activity (Nucleic Acid [3]): 40.8%
Activity (Nucleic Acid [4]): 52.7%
Activity (Nucleic Acid [5]): 60%
Activity (Nucleic Acid [6]): 65.1%
Activity (Nucleic Acid [7]): 58.6%
Activity (Nucleic Acid [8]): 22.6%
Activity (Nucleic Acid [9]): 12.1%
Activity (Nucleic Acid [10]): 26.5%
Drug uptake (A-375 [11]): Active
Activity (Nucleic Acid [12]): 45.6%
Activity (Nucleic Acid [13]): 34.9%
Activity (Nucleic Acid [14]): 47.3%
Activity (Nucleic Acid [15]): 0%
Activity (Nucleic Acid [16]): 30.2%
Activity (Nucleic Acid [18]): 42.3%
Activity (Nucleic Acid [19]): 28.4%
Activity (Nucleic Acid [20]): 0%
Activity (Nucleic Acid [21]): 12.7%
Activity (Nucleic Acid [23]): 16.1%
Activity (Nucleic Acid [24]): 0%
Activity (Nucleic Acid [27]): 21.3%
Activity (Nucleic Acid [28]): 78.7%
Activity (Nucleic Acid [29]): 48.1%
Activity (Nucleic Acid [30]): 35.4%
Activity (Nucleic Acid [31]): < 17%
Activity (Nucleic Acid [32]): 47.2%
Activity (Nucleic Acid [33]): 40.5%
Activity (Nucleic Acid [34]): 28.1%
Activity (Nucleic Acid [35]): 0%
Structure (SMILES): NCCCC[C@H](N)C(=O)NCCCC[C@H](N)C(=O)Nc1ccc(C#Cc2c(F)c(F)nc(F)c2F)cc1.O=C(O)C(F)(F)F
Activity (Nucleic Acid [17]): Active
Activity (Nucleic Acid [22]): tde
Activity (A-375 [25]): Non-toxic
CC50 (A-375 [26]): 270 nM

From ChEMBL document CHEMBL2157896, “Engineering pH-gated transitions for selective and efficient double-strand DNA photocleavage in hypoxic tumors” (J Med Chem, 2011)
